According to patent US12037324B2, “Biarylmethyl heterocycles” (Université de Montréal, priority 2016, dated 2024):

What was measured:
AGTR1 = molecular target: T1, AGTR1 (Homo sapiens, UniProt P30556); experiment: DiscoveRx β-arrestin2 recruitment assay (enzyme complementation, Pathunter CHO-K1 AGTR1 β-arrestin cell line); format: cell-based; settings: DiscoveRx β-arrestin2 recruitment; for DiscoveRx β-arrestin2 Ymax (%): maximal response
T1 construct: host or cells: Pathunter CHO-K1 AGTR1 β-arrestin cell line (CHO-K1)
T1 sequence (P30556 1-359): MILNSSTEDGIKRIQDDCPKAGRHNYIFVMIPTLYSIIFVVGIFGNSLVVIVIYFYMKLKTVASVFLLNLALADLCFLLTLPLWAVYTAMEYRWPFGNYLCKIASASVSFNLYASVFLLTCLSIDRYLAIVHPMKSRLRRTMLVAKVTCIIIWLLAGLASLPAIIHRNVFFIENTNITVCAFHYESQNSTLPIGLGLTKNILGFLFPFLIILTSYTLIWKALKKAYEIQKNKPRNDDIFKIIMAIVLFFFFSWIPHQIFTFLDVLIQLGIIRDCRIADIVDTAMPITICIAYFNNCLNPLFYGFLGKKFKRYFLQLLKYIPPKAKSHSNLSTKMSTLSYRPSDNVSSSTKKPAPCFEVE
Method in brief: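 Chemiluminescent enzyme-complementation read-out of β-arrestin2 recruitment to AGTR1 in engineered CHO-K1 cells after 90 min compound exposure at 37° C. Values are 4-parameter logistic EC50s in agonist mode, IC50s in antagonist mode, with efficacy relative to the maximal All response.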

hAT1R [1] = molecular target: T2, hAT1R (Homo sapiens, UniProt P30556); experiment: cell-based; settings: agonist mode; for EC50: read-out: BRET P63 EC50
T2 sequence (P30556 1-359): T1 sequence (P30556 1-359)

hAT1R [2] = molecular target: T2, hAT1R; experiment: BRET Gq biosensor assay, agonist response, HEK293 cells; format: cell-based; settings: section of the 42nd table directly before the BRET P63 section
Method in brief: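 Agonist EC50 derived from a 4-parameter fit of BRET2 ratio (GFP 515 nm/Rluc 410 nm), scaled between unstimulated control and maximal AngII response. Readings taken 5 min after compound addition at room temperature, with 2 μM coelenterazine, in HEK293 cells expressing hAT1R, Gαq-Rluc, Gβ1 and GFP-Gγ1 (transfected two days earlier).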

hAT1R [3] = molecular target: T2, hAT1R; experiment: cell-based; settings: section of the 42nd table ending at r951, example numbering restarts after the DiscoveRx section; read-out: β-arrestin2 EC50

SMILES | EC50 (AGTR1) | DiscoveRx β-arrestin2 Ymax (%) (AGTR1) | BRET P63 Ymax (hAT1R [1]) | EC50 (hAT1R [1]) | EC50 (hAT1R [2]) | EC50 (hAT1R [3])
CCc1nc2c(C)cc(C)nc2n1Cc1ccc(-c2cc(-c3ccccc3)ccc2-c2nn[nH]n2)cc1F [Example 264, 2-ethyl-3-((3-fluoro-6′-(2H-tetrazol-5-yl)-[1,1′:3′,1″-terphenyl]-4-yl)methyl)-5,7-dimethyl-3H-imidazo[4,5-b]pyridine] | 19.2 nM | 52.9% | 15.7% | 7.4 nM | 42.8 nM | 12.9 nM
CCc1nc2c(C)cc(C)nc2n1Cc1ccc(-c2cc(-c3ccccc3)ccc2-c2nn[nH]n2)c(F)c1 [Example 265] | 30.1 nM | 53.4% | 17.9% | 7 nM | 29.2 nM | 18.9 nM
CCc1nc2c(C)cc(C)nc2n1Cc1ccc(-c2cc(-c3cccc(C)c3)ccc2-c2nn[nH]n2)cc1F [Example 266] | 64.3 nM | 75.8% | 19.1% | 5.7 nM | 26.1 nM | 5.7 nM
CCc1nc2c(C)cc(C)nc2n1Cc1ccc(-c2cc(-c3cccc(C)c3)ccc2-c2nn[nH]n2)c(F)c1 [Example 267] | 9.8 nM | 62.5% | 17.7% | 7.5 nM | 36.6 nM | 8.2 nM
CCOc1nc2cccc(C(=O)O)c2n1Cc1ccc(-c2cc(-c3cc(C)ccn3)ccc2-c2noc(=O)[nH]2)cc1 [Example 299, 2-ethoxy-1-((5′-(4-methylpyridin-2-yl)-2′-(5-oxo-4,5-dihydro-1,2,4-oxadiazol-3-yl)-[1,1′-biphenyl]-4-yl)methyl)-1H-benzo[d]imidazole-7-carboxylic acid] | 7.7 nM | 83.0% | 31.7% | 4.9 nM | 21.3 nM | 4.7 nM
CCOc1nc2cccc(C(=O)O)c2n1Cc1ccc(-c2cc(-c3cc(OC(F)F)ccn3)ccc2-c2noc(=O)[nH]2)cc1 [Example 302] | 10.2 nM | 61.1% | 25.2% | 10.2 nM | 47.3 nM | 14.9 nM
CCOc1nc2cccc(C(=O)O)c2n1Cc1ccc(-c2cc(-c3ccccn3)ccc2-c2noc(=O)[nH]2)cc1 [Example 303] | 42.3 nM | 58.9% | 30.4% | 49.7 nM | 109 nM | 38.2 nM
CCOc1nc2cccc(C(=O)O)c2n1Cc1ccc(-c2cc(-c3cc(N(C)C)ccn3)ccc2-c2noc(=O)[nH]2)cc1 [Example 305] | 25.5 nM | 69.3% | 24.3% | 67 nM | 82.9 nM | 90.3 nM
CCOc1nc2cccc(C(=O)O)c2n1Cc1ccc(-c2cc(-c3cc(C)ccn3)ccc2-c2nn[nH]n2)cc1 [Example 309, 2-ethoxy-1-((5′-(4-methylpyridin-2-yl)-2′-(2H-tetrazol-5-yl)-[1,1′-biphenyl]-4-yl)methyl)-1H-benzo[d]imidazole-7-carboxylic acid] | 4.1 nM | 80.4% | 28.6% | 3.8 nM | 7.9 nM | 6.5 nM
CCOc1nc2cccc(C(=O)O)c2n1Cc1ccc(-c2cc(-c3cc(OC)ccn3)ccc2-c2nn[nH]n2)cc1 [Example 310, 2-ethoxy-1-((5′-(4-methoxypyridin-2-yl)-2′-(2H-tetrazol-5-yl)-[1,1′-biphenyl]-4-yl)methyl)-1H-benzo[d]imidazole-7-carboxylic acid] | 14.9 nM | 51.4% | 29.1% | 7.2 nM | 35.3 nM | 10.9 nM
CCOc1nc2cccc(C(=O)O)c2n1Cc1ccc(-c2cc(N3CCC[C@@H](C)C3)ccc2-c2nn[nH]n2)cc1 [Example 323] | 22.2 nM | 43.2% | – | > 10000 nM | > 100000 nM | 24.4 nM
CCOc1nc2cccc(C(=O)O)c2n1Cc1ccc(-c2cc(N3CCC[C@H](C)C3)ccc2-c2nn[nH]n2)cc1 [Example 324] | 17.4 nM | 55.2% | – | > 10000 nM | 42.3 nM | 63.2 nM
